Measurements reported in PubChem BioAssay (NCI).
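Test compounds were applied to cells in 96-well plates for 48 hours at 5 doses. GI50 = concentration required for 50% inhibition of growth. The concentration for full growth arrest is given as TGI.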

Experiments:
Experiment in all cases: NCI tumour cell line growth inhibition, 48 h
OVCAR-3 ovarian = test system: OVCAR-3 ovarian
HS 578T breast = test system: HS 578T breast
HCT-15 colon = test system: HCT-15 colon
SN12C renal = test system: SN12C renal
RPMI-8226 leukemia = test system: RPMI-8226 leukemia
COLO 205 colon = test system: COLO 205 colon
SF-268 CNS = test system: SF-268 CNS
UO-31 renal = test system: UO-31 renal
HOP-62 NSCLC = test system: HOP-62 NSCLC
NCI-H226 lung = test system: NCI-H226 lung
MCF7 breast = test system: MCF7 breast
EKVX NSCLC = test system: EKVX NSCLC
UACC-62 melanoma = test system: UACC-62 melanoma
A549 NSCLC = test system: A549 NSCLC
HCC-2998 colon = test system: HCC-2998 colon
HT29 colon = test system: HT29 colon
ACHN renal = test system: ACHN renal
T-47D breast = test system: T-47D breast
IGROV1 ovarian = test system: IGROV1 ovarian
OVCAR-8 ovarian = test system: OVCAR-8 ovarian
UACC-257 melanoma = test system: UACC-257 melanoma
HCT-116 colon = test system: HCT-116 colon
HL-60(TB) leukemia = test system: HL-60(TB) leukemia
NCI-H23 lung = test system: NCI-H23 lung
SF-295 CNS = test system: SF-295 CNS
OVCAR-5 ovarian = test system: OVCAR-5 ovarian
U251 CNS = test system: U251 CNS
786-0 renal = test system: 786-0 renal
SF-539 CNS = test system: SF-539 CNS
MDA-MB-435 = test system: MDA-MB-435
M14 melanoma = test system: M14 melanoma
SNB-19 CNS = test system: SNB-19 CNS
TK-10 renal = test system: TK-10 renal
KM12 colon = test system: KM12 colon
SW-620 colon = test system: SW-620 colon
SK-MEL-28 melanoma = test system: SK-MEL-28 melanoma
MDA-MB-231 breast = test system: MDA-MB-231 breast
RXF 393 renal = test system: RXF 393 renal
A498 renal = test system: A498 renal
MOLT-4 leukemia = test system: MOLT-4 leukemia
NCI-H522 lung = test system: NCI-H522 lung
DU-145 prostate = test system: DU-145 prostate
SNB-75 CNS = test system: SNB-75 CNS
K-562 leukemia = test system: K-562 leukemia
CAKI-1 renal = test system: CAKI-1 renal
NCI-H460 lung = test system: NCI-H460 lung
LOX IMVI melanoma = test system: LOX IMVI melanoma
SK-OV-3 ovarian = test system: SK-OV-3 ovarian
BT-549 breast = test system: BT-549 breast
SR leukemia = test system: SR leukemia
SK-MEL-5 melanoma = test system: SK-MEL-5 melanoma
NCI/ADR-RES ovarian = test system: NCI/ADR-RES ovarian

Cc1cc(Cl)ccc1Nc1nc(C(F)(F)F)ccc1C(=O)N/N=C/c1ccc(N(C)C)cc1
GI50 (OVCAR-3 ovarian): 0.563 µM | TGI (OVCAR-3 ovarian): > 100 µM | GI50 (HS 578T breast): 2.7 µM | TGI (HS 578T breast): > 100 µM | GI50 (HCT-15 colon): 0.481 µM | TGI (HCT-15 colon): > 100 µM | GI50 (SN12C renal): 3.99 µM | TGI (SN12C renal): > 100 µM | GI50 (RPMI-8226 leukemia): 2.94 µM | TGI (RPMI-8226 leukemia): > 100 µM | GI50 (COLO 205 colon): 2.59 µM | TGI (COLO 205 colon): > 100 µM | GI50 (SF-268 CNS): 1.37 µM | TGI (SF-268 CNS): > 100 µM | GI50 (UO-31 renal): 2.97 µM | TGI (UO-31 renal): > 100 µM | GI50 (HOP-62 NSCLC): 2.38 µM | TGI (HOP-62 NSCLC): > 100 µM | GI50 (NCI-H226 lung): 2.29 µM | TGI (NCI-H226 lung): > 100 µM | GI50 (MCF7 breast): 1.9 µM | TGI (MCF7 breast): > 100 µM | GI50 (EKVX NSCLC): 0.746 µM | TGI (EKVX NSCLC): > 100 µM | GI50 (UACC-62 melanoma): 2.29 µM | TGI (UACC-62 melanoma): > 100 µM | GI50 (A549 NSCLC): 3.86 µM | TGI (A549 NSCLC): > 100 µM | GI50 (HCC-2998 colon): 1.43 µM | TGI (HCC-2998 colon): > 100 µM | GI50 (HT29 colon): 3.8 µM | TGI (HT29 colon): > 100 µM | GI50 (ACHN renal): 2.57 µM | TGI (ACHN renal): > 100 µM | GI50 (T-47D breast): 1.2 µM | TGI (T-47D breast): > 100 µM | GI50 (IGROV1 ovarian): 2.03 µM | TGI (IGROV1 ovarian): 9.11 µM | GI50 (OVCAR-8 ovarian): 2.83 µM | TGI (OVCAR-8 ovarian): > 100 µM | GI50 (UACC-257 melanoma): 4.97 µM | TGI (UACC-257 melanoma): > 100 µM | GI50 (HCT-116 colon): 0.743 µM | TGI (HCT-116 colon): > 100 µM | GI50 (HL-60(TB) leukemia): 1.44 µM | TGI (HL-60(TB) leukemia): > 100 µM | GI50 (NCI-H23 lung): 3.92 µM | TGI (NCI-H23 lung): > 100 µM | GI50 (SF-295 CNS): 1.42 µM | TGI (SF-295 CNS): 4.92 µM | GI50 (OVCAR-5 ovarian): 2.4 µM | TGI (OVCAR-5 ovarian): > 100 µM | GI50 (U251 CNS): 1.42 µM | TGI (U251 CNS): > 100 µM | GI50 (786-0 renal): 0.997 µM | TGI (786-0 renal): > 100 µM | GI50 (SF-539 CNS): 5.87 µM | TGI (SF-539 CNS): > 100 µM | GI50 (MDA-MB-435): 4.02 µM | TGI (MDA-MB-435): > 100 µM | GI50 (M14 melanoma): 1.2 µM | TGI (M14 melanoma): 8.75 µM | GI50 (SNB-19 CNS): 3.08 µM | TGI (SNB-19 CNS): > 100 µM | GI50 (TK-10 renal): 1.03 µM | TGI (TK-10 renal): > 100 µM | GI50 (KM12 colon): 3.4 µM | TGI (KM12 colon): > 100 µM | GI50 (SW-620 colon): 2.04 µM | TGI (SW-620 colon): > 100 µM | GI50 (SK-MEL-28 melanoma): 3.81 µM | TGI (SK-MEL-28 melanoma): > 100 µM | GI50 (MDA-MB-231 breast): 1.37 µM | TGI (MDA-MB-231 breast): > 100 µM | GI50 (RXF 393 renal): 0.633 µM | TGI (RXF 393 renal): 44.4 µM | GI50 (A498 renal): 2.59 µM | TGI (A498 renal): > 100 µM | GI50 (MOLT-4 leukemia): 2.22 µM | TGI (MOLT-4 leukemia): > 100 µM | GI50 (NCI-H522 lung): 3.07 µM | TGI (NCI-H522 lung): > 100 µM | GI50 (DU-145 prostate): 0.915 µM | TGI (DU-145 prostate): 8.86 µM | GI50 (SNB-75 CNS): 1.83 µM | TGI (SNB-75 CNS): > 100 µM | GI50 (K-562 leukemia): 1.93 µM | TGI (K-562 leukemia): > 100 µM | GI50 (CAKI-1 renal): 0.404 µM | TGI (CAKI-1 renal): 8.52 µM | GI50 (NCI-H460 lung): 1.57 µM | TGI (NCI-H460 lung): > 100 µM | GI50 (LOX IMVI melanoma): 0.7 µM | TGI (LOX IMVI melanoma): > 100 µM | GI50 (SK-OV-3 ovarian): 2.19 µM | TGI (SK-OV-3 ovarian): > 100 µM | GI50 (BT-549 breast): 0.624 µM | TGI (BT-549 breast): 6.78 µM | GI50 (SR leukemia): 0.872 µM | TGI (SR leukemia): 6.79 µM | GI50 (SK-MEL-5 melanoma): 2.56 µM | TGI (SK-MEL-5 melanoma): > 100 µM | GI50 (NCI/ADR-RES ovarian): 2.21 µM | TGI (NCI/ADR-RES ovarian): > 100 µM
